Laboratory results: patent US20210113540A1, “TREATMENT AGENT AND PHARMACEUTICAL COMPOSITION FOR GLIOMA” (NATIONAL UNIVERSITY CORPORATION HOKKAIDO UNIVERSITY, priority 2018, published 2021)

Tests used:
Type in all cases: cell-based, human
[1] = tested on: SOX2 in GICs (E6); test: SOX2 immunostaining, SOX2/DAPI positive rate in GICs (E6); conditions: 20 μmol/L OSMI-1, cultured 2 days; control 71±2%
Protocol: (§1) The extranuclear elimination of compound 8-dependent SOX2 is dependent on the extranuclear transport factor, Exportin (also known as CRM1). The cells were cultured for one day in the presence of Compound 8 (10 μM) and a CRM1-specific inhibitor leptomycin B (LMB, 150 nM), and GICs were immunostained with the SOX2 antibody. As a result, the SOX2/DAPI positive rate in GICs (E6) was as follows: Control: 95±2%, supplemented with Compound 8: 7±3%, supplemented with Compound 8+LMB: 87±9%; the SOX2/DAPI positive rate in GICs (E16) was as follows: Control: 72±11%, supplemented with compound 8: 0.5±1%, supplemented with Compound 8+LMB: 81±10%. The addition of LMB suppressed Compound 8-dependent extranuclear elimination of SOX2.
(§2) When UDP-GlcNAc was added after the chemical was added to GIC, reduced SOX2 expression in GICs and the cytotoxic activity of Compound 8 on GICs were neutralized (FIGS. 3 and 4). SOX2 K75A in which lysine 75 involved in the binding of CRM1 and SOX2 was substituted with alanine and SOX2 S248A in which the 0-GlcNAcylation target serine 248 was substituted with alanine were prepared, thereby establishing GICs that constitutively express these SOX2 mutants and wild-type SOX2 (SOX2 wt). After treatment with Compound 8, the localization of SOX2 was examined by immunostaining using an anti-FLAG antibody, and the viability of GICs expressing these mutants was examined by MTT assay (FIG. 5). In the presence of Compound 8, SOX2 K75A was present in the nucleus and partially neutralized the cytotoxic activity of Compound 8. SOX2 S248A was not retained in the nucleus by treatment with Compound 8, and no inhibitory effect on cytotoxic activity was observed. […] The SOX2/DAPI positive rate was as follows: GIC (E6): Control: 0%, SOX2 wt: 36±5%, SOX2 K75A: 63±5%, SOX2 S248A: 18±2%; GIC (E16): Control: 0%, SOX2 wt: 22±4%, SOX2 K75A: 58±6%, SOX2 S248A: 15±3%. Error bar: ±SD. Statistical processing is t-test. *P<0.05, **P<0.01, ***P<0.001. GIC was cultured for 2 days with Compound 8 (10 μmol/L) alone or together with UDP-GlcNAc (1 mmol/L), and immunostaining was performed for SOX2 and NESTIN. As a result, the addition of UDP-GlcNAc suppressed Compound 8-dependent extranuclear elimination of SOX2.
(§3) OSMI-1, which is an O-GlcNAc transferase (OGT)-specific inhibitor, suppresses GIC growth and SOX2 expression. (A) GICs were cultured for 3 days in the presence of various concentrations of OSMI-1, and cell growth was examined using MTT assay (FIG. 6). (B) The results of immunostaining for SOX2 and NESTIN using GICs cultured for 2 days in the presence of 20 μmol/L OSMI-1 and calculating the SOX2 positive rate (SOX2/DAPI) are shown below.

[2] = tested on: SOX2 in GICs (E16); test: SOX2 immunostaining, SOX2/DAPI positive rate in GICs (E16); conditions: 20 μmol/L OSMI-1, cultured 2 days; control 65±5%
Protocol: as §1, §2, §3

[3] = tested on: GICs; test: GIC growth in the presence of OSMI-1 (MTT assay); conditions: cultured 3 days, various concentrations of OSMI-1, FIG. 6
Protocol: as §3

COc1ccccc1[C@@H](NS(=O)(=O)c1ccc2[nH]c(=O)ccc2c1)C(=O)N(Cc1ccco1)Cc1cccs1 [OSMI-1, reference compound]
SOX2 positive rate (SOX2/DAPI), GIC (E6) [1]: 32±4%
SOX2 positive rate (SOX2/DAPI), GIC (E16) [2]: 30±5%
GIC growth [3]: suppresses
